Measured values from PMC7862066, “A novel UBE2T inhibitor suppresses Wnt/β-catenin signaling hyperactivation and gastric cancer progression by blocking RACK1 ubiquitination” (Oncogene, 2020).

Molecular target: T1, UBE2T (Homo sapiens, UniProt Q9NPD8)
T1 construct: fluorescently labelled UBE2T protein for MST
Assay: microscale thermophoresis
Format: binding
Settings: fluorescently labelled UBE2T; compound titrated 31 nM to 500 μM

T1 sequence (Q9NPD8 whole entry): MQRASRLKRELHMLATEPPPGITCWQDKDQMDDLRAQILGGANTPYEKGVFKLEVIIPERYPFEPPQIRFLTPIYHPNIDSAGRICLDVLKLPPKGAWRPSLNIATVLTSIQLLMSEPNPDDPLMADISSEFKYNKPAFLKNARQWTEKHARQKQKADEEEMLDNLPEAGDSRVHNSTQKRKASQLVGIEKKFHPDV

Structure (SMILES): NS(=O)(=O)c1ccc(NC(=O)c2c(O)c3c4c(sc3[nH]c2=O)CCCC4)cc1 [M435-1279]
- Kd: 50.5 µM
